Reference: paper PMC11134331, “Cell-active small molecule inhibitors validate the SNM1A DNA repair nuclease as a cancer target” (Chemical Science, 2024)
Read-outs that look alike come from different tables or passages of the source.

Legend:
RPE-1 cells = assay: clonogenic survival assay, RPE-1 cells; format: cell-based, human
Experimental: Clonogenic assays were performed in 10 cm tissue culture dishes (for RPE-1 cells, U2OS cells and derived clones). Cells (1000 per dish) were seeded in complete media (10 mL) and allowed to attach overnight, then treated with cisplatin or cisplatin plus inhibitor for the times stated. Following treatments, cells were allowed to grow and form colonies for 10 days. Colonies formed were stained with Coomassie R250 (Sigma) and counted on a COLCount Colony Counter (Oxford Optronix). All experiments represent the mean (±SEM) of at least three biological repeats of duplicate dishes/flasks for each treatment.

SNM1B = target: T1, SNM1B (Homo sapiens, UniProt Q9H816); assay: real-time fluorescence-based nuclease assay, SNM1B; format: biochemical
T1 construct: for the MBL and β-CASP domains of SNM1B (aa 1–335) into baculoviral expression vectors pFB-CT10HF-LIC; made in house; host or cells: Sf9 insect cells (baculovirus)
T1 sequence (Q9H816 1-335): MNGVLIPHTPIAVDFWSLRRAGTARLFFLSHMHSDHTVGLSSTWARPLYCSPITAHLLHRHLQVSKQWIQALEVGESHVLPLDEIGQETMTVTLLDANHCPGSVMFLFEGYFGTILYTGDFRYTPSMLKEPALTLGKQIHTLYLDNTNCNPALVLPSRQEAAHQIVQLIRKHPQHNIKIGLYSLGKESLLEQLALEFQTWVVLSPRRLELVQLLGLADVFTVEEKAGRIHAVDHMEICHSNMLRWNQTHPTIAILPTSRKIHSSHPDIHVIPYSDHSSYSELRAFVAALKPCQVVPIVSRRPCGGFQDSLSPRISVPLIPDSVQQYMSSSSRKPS
Experimental: There is structural similarity between SNM1A, SNM1B, and SNM1C and major mechanistic features are likely conserved between the three nucleases. We therefore tested (13) and other hydroxamic acid analogues for inhibition of SNM1B and SNM1C. Due to differences in catalytic turnover between the three enzymes, different concentrations of SNM1B (1 nM) and SNM1C (2.5 nM) were used compared to that for SNM1A (0.5 nM) in the assays. Note that the substrate utilised for the high-throughput fluorescence based and subsequent SNM1A and SNM1B assays differed slightly for SNM1C reflecting its (primarily) endonucleolytic, rather than exonucleolytic, activity (ESI Fig. 9 ^†).
Fluorescence-based nuclease digestion SNM1A–C assays were performed as described.[30,45] […] Fluorescence was measured using a PHERAstar FSX fluorescent plate reader in fluorescent top read mode using excitation at 495 nm, emission at 525 nm, and cutoff at […]. Fluorescence spectra were measured every 140 s, for 35 min, at 37 °C. The fluorescence intensity of each well was plotted against compound concentration and fitted using a log (inhibitor) response curve using GraphPad Prism software (GraphPad Software, Inc., La Jolla, CA, USA).

SNM1A = target: T2, SNM1A (Homo sapiens, UniProt Q6PJP8); assay: gel-based nuclease assay, SNM1A; format: biochemical; design: DNA encoding for the MBL and β-CASP domains of SNM1A (aa 676–1040) was cloned into the baculovirus transfer vector pFB-LIC-Bse; inferred from vector pFB-LIC-Bse and the IMAC purification; made in house; host or cells: Sf9 insect cells (baculovirus)
T2 sequence (Q6PJP8 676-1040): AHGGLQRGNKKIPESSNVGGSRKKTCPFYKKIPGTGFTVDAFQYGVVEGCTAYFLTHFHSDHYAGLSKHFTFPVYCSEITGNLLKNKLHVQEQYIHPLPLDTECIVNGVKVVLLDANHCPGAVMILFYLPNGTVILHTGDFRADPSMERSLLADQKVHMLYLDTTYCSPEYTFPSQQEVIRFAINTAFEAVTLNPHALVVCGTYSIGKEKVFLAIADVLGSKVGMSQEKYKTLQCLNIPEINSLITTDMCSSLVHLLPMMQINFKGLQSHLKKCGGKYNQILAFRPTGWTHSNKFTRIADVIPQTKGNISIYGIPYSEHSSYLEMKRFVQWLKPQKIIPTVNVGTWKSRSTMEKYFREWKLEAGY
Excerpt: To validate the inhibition of SNM1A, SNM1B, and SNM1C observed in the fluorescence-based screening assays, we then performed gel-based assays using 3′ terminally-labelled oligonucleotide substrates that enable both quantitative and qualitative (visual) assessment of the pattern of inhibition, for a subset of compounds. Importantly, whereas the fluorescence-based assay measures a single hydrolytic event at the substrate terminus, the gel-based nuclease assay informs on the pattern of digestion of the entire 51-mer substrate DNA over time.
Standard exonuclease assays were carried out in a 10 μL final volume containing 20 mM HEPES-KOH, pH 7.5, 50 mM KCl, 0.5 mM TCEP, 10 mM MgCl2, 0.05% (v/v) Triton X-100, 5% (v/v) glycerol, and SNM1 proteins as indicated. Inhibitors were dissolved in DMSO and diluted immediately prior to the reaction in the above buffer. Inhibitors were serially diluted two-fold from 100 μM. The DMSO concentration was kept constant at 0.1% (v/v) in the final reaction mixture. Inhibitors were incubated with the indicated SNM1 enzyme for 10 minutes at room temperature; reactions were initiated by addition of 10 nM DNA substrate and incubated at 37 °C for 20 min. Reactions were quenched by addition of 5 μL stop solution (95% formamide, 10 mM EDTA, 0.25% (v/v) xylene cyanol, 0.25% (v/v) bromophenol blue) and heated at 95 °C for 3 min. Reactions were analysed by 20% denaturing polyacrylamide gel electrophoresis solution of 19 : 1 acrylamide:bis-acrylamide, BioRad and 7 M urea (Sigma Aldrich) in 1 × TBE (Tris-borate EDTA) buffer. Electrophoresis was carried out at 525 V for 75 minutes; gels were subsequently fixed for 60 minutes in a 50% (v/v) methanol, 10% (v/v) acetic acid solution, and dried at 80 °C for two hours under vacuum. Dried gels were exposed to a Kodak Phosphor imager screen and scanned using a Typhoon 9500 instrument (GE Healthcare), scanned images were quantified using ImageJ.

C[C@H](Nc1nc(NCc2ccco2)nc2ccc(Cl)cc12)C(=O)NO [compound 19]
effect on cisplatin sensitivity (RPE-1 cells; RPE-1, 50 μM compound): did not substantially increase
reduction in survival as single agent (RPE-1 cells; RPE-1, 50 μM compound): negligible reduction in survival
toxicity as single agent (RPE-1 cells; RPE-1, 100 μM compound): mild toxicity
IC50 (SNM1B): 2.5 µM
inhibition of SNM1A in gel-based assay (SNM1A; 0.5 nM SNM1A): inhibits each of SNM1A–C
IC50 (SNM1A; Suppl. Figure 11C, three independent experiments, read-out: SNM1A IC50 estimated from densitometric analysis of gel based assays): 7.6 µM
IC50 (SNM1A; direct quantification of ratio between intact substrate and digestion product, read-out: SNM1A IC50 estimated from gel-based assay): ~8 µM
